Read-outs that look alike come from different tables or passages of the source.
Tests used:
DENV2 = experiment: Cell-based Flavivirus Immunodetection (CFI) assay, DENV envelope protein production in A549 cells; set-up: species or system dengue virus serotype 2; conditions: ± standard deviation, at least three independent experiments
Experimental: (§1) The antiviral activity of the test compounds (1, 3, 6, and 7) was examined in the Cell-based Flavivirus Immuno-assay (CFI assay). The CFI assay is based on a quantitative immunodetection of the DENV envelope protein production in A549 cells. Infection of the A549 cells by the DENV2 was allowed to occur in the presence of each test compound, after which virus load was measured by quantifying the amount of envelope protein that is produced using enzyme linked immunosorbent assay (ELISA). To ensure that the inhibition of the envelope production was not due to cell death, the cytotoxicity of each test compound was assessed via the cell viability assay.
A549 cells (catalog no. CCL-185; ATCC, Manassas, VA, USA) were maintained in Ham’s F-12 medium with 10% fetal bovine serum (FBS) and 1% penicillin-streptomycin at 37 °C in 5% CO2. The DENV2 used in this study was prepared by inoculating monolayers of C6/36 cells grown in RPMI 1640 medium with 5% FBS and 1% penicillin-streptomycin. After incubation at 28 °C for four to five days, the cell culture supernatant was collected after clarification of cell debris and was stored at −80 °C until used.
A549 cells were trypsinised and diluted to a concentration of 2 × 10^5 cells/mL in culture medium containing 2% FBS. A total of 100 μL of the cell suspension (2 × 10^4 cells) was dispensed into each well of a 96-well tissue culture plate. The cells were grown overnight in culture medium at 37 °C with 5% CO2 and were then infected with the DENV at a multiplicity of infection of 0.3 in the presence of different concentrations of the test compounds for 1 h at 37 °C with 5% CO2. The virus inoculum was removed and then replaced with fresh medium containing the test compounds and the cells were incubated at 37 °C with 5% CO2 for 48 h. The cells were washed once with phosphate-buffered saline (PBS) and fixed with cold methanol for 10 min. After the fixed cells were washed twice with PBS, they were blocked with PBS containing 1% FBS and 0.05% Tween 20 for 1 h at room temperature. A primary antibody (antibody 4G2) solution was then added, and the mixture was incubated for 3 h. The cells were washed three times with PBS, followed by incubation for 1 h with horseradish peroxidase-conjugated anti-mouse immunoglobulin G. After the cells were washed three times with PBS, 3,3′,5,5′-tetramethylbenzidine substrate solution was added to each well, and the reaction was stopped by adding 0.5 M sulfuric acid. The absorbencies of the solutions were measured with a Tecan Safire II plate reader (Tecan Group Ltd., Männedorf, Switzerland) at 450 nm for viral antigen quantification. Dose-response curves were plotted from the mean absorbance versus the log of the concentration of the test compound. The IC50, that is, the concentration of the test compound that inhibited the level of viral envelope protein production by 50%, was calculated by nonlinear regression analysis. All of the experiments were conducted in triplicate.

[1] = Celltiter-Glo Luminescent cell viability assay (cytotoxicity); assay type: cell-based; conditions: human
Experimental: as §1
(§2) The cytotoxicities of the test compounds were measured by a Celltiter-Glo Luminescent cell viability assay, according to the manufacturer’s protocol (catalog no. G7570; Promega, Madison, WI, USA). The A549 cell preparation and compound addition were performed, as described above under the “CFI assay”. After 48 h of incubation, the luminescent signals for cells treated with the test compounds were compared to those for cells treated with dimethyl sulfoxide (DMSO) to determine the CC50. […] All of the experiments were conducted in triplicate.

DENV [2] = test system: DENV; set-up: method as in ref 8 (Koff et al., 1980); conditions: all four serotypes, ref 8 (Koff et al., 1980); cited from earlier work
DENV [3] = test system: DENV; set-up: method as in ref 9 (Lin and Chen, 2016); conditions: small scale clinical study; ref 9 (Lin and Chen, 2016); cited from earlier work
DENV2 NS2B/NS3 protease = test system: DENV2 NS2B/NS3 protease; set-up: method as in ref 6 (Timiri et al., 2015); conditions: in vitro; ref 6 (Timiri et al., 2015); cited from earlier work
A549 cells = experiment: Celltiter-Glo Luminescent cell viability assay (cytotoxicity); assay type: cell-based; conditions: A549 cells, 48 h, maximum concentration tested 100 µM
Experimental: as §1, §2

[4] = Dengue virus, DENV2, A549, 48 h, CFI assay, A549 cells infected with DENV2, MOI 0.3, 48 h, read-out: DENV2 IC50
[5] = A549 cells, 48 h, maximum concentration tested 100 µM, read-out: CC50

With `NC12CC3CC(CC(C3)C1)C2` [Compound 1, amantadine, reference compound] the “DENV2 IC50” value (DENV2; CFI assay, A549 cells infected with DENV2, MOI 0.3, 48 h) was “did not show significant DENV2 activity”, the IC50 (DENV2; [4]) was over 100 µM and the CC50 at 48 h ([1]; CC50) was over 100 µM. For the same compound, the “anti-DENV activity in vitro” value (DENV [2]) was “anti-DENV activity on all four serotypes” and the “treatment effectiveness in DENV infected patients” value (DENV [3]) was “effective treatment option”.
With `O=C(NC12CC3CC(CC(C3)C1)C2)c1ccccc1` [Compound 6, N-(adamantan-1-yl)benzamide] the IC50 (DENV2; [4]) was over 100 µM and the CC50 at 48 h [1, 5] was over 100 µM.
For `CCc1ccc(NS(=O)(=O)c2ccc(N3C(=O)c4ccccc4C3=O)cc2)cc1` [SF1], the IC50 (DENV2 NS2B/NS3 protease) is listed as 48.2 µM.
Compound `O=C(NC12CC3CC(CC(C3)C1)C2)c1ccc(S(=O)(=O)NC23CC4CC(CC(C4)C2)C3)cc1` [Compound 3, N-(adamantan-1-yl)-4-[(adamantan-1-yl)sulfamoyl]benzamide] has an IC50 (DENV2; CFI assay, A549 cells infected with DENV2, MOI 0.3, 48 h, read-out: DENV2 IC50) of 22.4 ± 7.7 µM, an IC50 (DENV2; Dengue virus, DENV2, A549, 48 h, read-out: DENV2 IC50, CFI assay, A549 cells infected with DENV2, MOI 0.3, 48 h) of 22.2 µM and a CC50 at 48 h [1, 5] of under 100 µM. For the same compound, the CC50 (A549 cells) was over 100 µM.
In the case of `O=C1c2ccccc2C(=O)N1c1ccc(S(=O)(=O)Nc2cccc3ccccc23)cc1` [SF2], the IC50 (DENV2 NS2B/NS3 protease) is listed as 122 µM.
`NS(=O)(=O)c1ccc(C(=O)NC23CC4CC(CC(C4)C2)C3)cc1` [Compound 7, N-(adamantan-1-yl)-4-sulfamoylbenzamide] gave an IC50 (DENV2; [4]) of 42.8 ± 8.6 µM, a CC50 at 48 h [1, 5] of under 100 µM and a CC50 (A549 cells) of over 100 µM.
